The values that follow come from US10344019B2 (priority 2010, dated 2019).

Structures are written as SMILES. Read-outs that look alike come from different tables or passages of the source. Where only a bound is given, the exact number is not on record here.

Holding throughout (assay type): cell-based
In test [1] the test system is HCV 2a Rluc cells (NS5A chimeric genotype 2a JFH-1 replicon with genotype 2a J6 strain NS5A gene, M31 present). In words: HCV replicon reporter assay, genotype 2a J6 (M31 present). The following applies: Hepatitis C virus, read-out: 2a J6. Put shortly: (§1)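 Replicon cells stably carrying the listed RLuc-encoding dicistronic replicons were seeded and treated with DMSO serial dilutions of compound (10 mM stocks) diluted into culture medium. After 72 h, cells were lysed and Renilla luciferase activity measured. EC50 was derived by non-linear regression.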
For orientation: In antiviral work, replicon cells carry a viral genome segment that copies itself.

The test system of test [2] is HCV 2b Rluc cells (NS5A chimeric genotype 2a JFH-1 replicon with genotype 2b MD2b-1 NS5A gene, M31 present). In words: microbe, parasite or virus in culture. The settings on record: Hepatitis C virus, read-out: 2b. The procedure, abridged:
as §1

Test [3] relates to HCV 4a Rluc cells (NS5A chimeric genotype 1b Con1 replicon with genotype 4a NS5A gene). Briefly: microbe, parasite or virus in culture. The following applies: Hepatitis C virus, read-out: 4a. Put shortly:
as §1

Test [4] concerns HCV 3a RLuc cells (NS5A chimeric genotype 1b Con1 replicon with consensus genotype 3a NS5A gene). Briefly: microbe, parasite or virus in culture. The settings on record: Hepatitis C virus. The procedure, abridged:
as §1

The test system of test [5] is HCV 1b RLuc cells (dicistronic genotype 1b Con1 replicon, RLuc reporter). Briefly: microbe, parasite or virus in culture. The following applies: Hepatitis C virus, read-out: 1b (nM). Put shortly:
as §1

In test [6] the test system is HCV 2a JFH-1 Rluc cells (dicistronic genotype 2a JFH-1 replicon, RLuc reporter). Briefly: microbe, parasite or virus in culture. The following applies: Hepatitis C virus, read-out: 2a JFH. The procedure, abridged:
as §1

The test system of test [7] is HCV 1a RLuc cells (dicistronic genotype 1a H77 replicon, RLuc reporter). Briefly: microbe, parasite or virus in culture. The following applies: Hepatitis C virus, read-out: 1a. The procedure, abridged:
as §1

Setting [8] is: read-out: 3a, genotype 3a replicon.
The mark [9] stands for this setting: read-out: 3a, genotype 3a NS5A chimeric replicon.
Setting [10] is: genotype 2a JFH-1 RLuc replicon.
The mark [11] stands for this setting: read-out: 3a, Table 1, genotype 3a NS5A chimeric replicon.
Where [12] appears, read: 72 h, Table 1, genotype 2a JFH-1 replicon, 72 hours.
The mark [13] stands for this setting: 72 h, Table 1, genotype 1a H77 replicon, 72 hours.

As to `CC(C)[C@H](NC(=O)OC(C)(C)C)C(=O)N[C@@H](C(=O)N1CCC[C@H]1c1ncc(-c2cc3c4c(c2)OCc2cc(-c5cnc([C@@H]6CCCN6C(=O)[C@H](NC(=O)[C@@H](NC(=O)OC(C)(C)C)C(C)C)c6ccccc6)[nH]5)cc(c2-4)OC3)[nH]1)c1ccccc1` [Example 485], the EC50 in test [1] was above 44000 pM; in test [2] it was above 44000 pM; in test [3], 1 to 990 pM; in test [4] (setting [8]), 1 to 990 pM; in test [5], 0.17 nM; in test [6] (genotype 2a JFH-1 replicon) it was 1 to 999 pM. For the same compound, the EC50 in test [7] (genotype 1a replicon) fell in the range of 1000 to 44000 pM.

Consider `COC(=O)N[C@H](C(=O)N1CC2(C[C@H]1c1nc3c([nH]1)-c1ccc(-c4ccc5c(ccc6nc([C@@H]7CCCN7C(=O)[C@H](NC(=O)OC)c7ccccc7)[nH]c65)c4)cc1CC3)OCCO2)C(C)C` [Example 355], for which the EC50 was 1000 to 44000 pM in test [1]; 1000 to 44000 pM in test [2]; 1 to 990 pM in test [3]; 1 to 990 pM in test [4] (setting [8]); 0.095 nM in test [5]; 1 to 999 pM in test [6] (genotype 2a JFH-1 replicon). For the same compound, the EC50 in test [7] (genotype 1a replicon) was in the range of 1 to 999 pM.

Consider `COC(=O)N[C@H](C(=O)N1[C@@H](C)CC[C@H]1c1ncc(-c2cc3c4c(c2)OCc2cc(-c5cnc([C@@H]6CC[C@H](C)N6C(=O)[C@@H](NC(=O)OC)C(C)C)[nH]5)cc(c2-4)OC3)[nH]1)C(C)C` [Example 460], for which the EC50 in test [1] is 1000 to 44000 pM; in test [2], 1 to 999 pM; in test [3], 1 to 990 pM; in test [4] (setting [8]), 1 to 990 pM; in test [5], 0.018 nM; in test [6] (genotype 2a JFH-1 replicon), 1 to 999 pM. In test [7] (genotype 1a replicon), the EC50 was 1 to 999 pM.

On to `COC(=O)N[C@H](C(=O)N1CCC[C@H]1c1nc2ccc3cc(-c4ccc5c(ccc6nc([C@@H]7C[C@H](COC(F)F)CN7C(=O)[C@@H](NC(=O)OC)C(C)C)[nH]c65)c4)ccc3c2[nH]1)C(C)C` [Example 514], for which the EC50 in test [1] is 1 to 999 pM; in test [2], 1 to 999 pM; in test [3], 1 to 990 pM; in test [4] (setting [9]) it was 1 to 990 pM; in test [5] it was 0.01 nM; in test [6] (setting [10]) it was 1 to 999 pM. In addition, the EC50 in test [7] (genotype 1a H77 RLuc replicon) lay in the range of 1 to 999 pM.

In the case of `COC(=O)N[C@H](C(=O)N1CCC[C@H]1c1ncc(-c2cc3c4c(ccc5cc(-c6cnc([C@@H]7CCCN7C(=O)[C@@H](NC(=O)OC)C(C)C)[nH]6)cc(c54)OC3)c2)[nH]1)C(C)C` [Example 408], the EC50 in test [1] was above 44000 pM; in test [2], above 44000 pM; in test [3], 1 to 990 pM; in test [4] (setting [8]) it was 1 to 990 pM; in test [5], 0.022 nM; in test [6] (genotype 2a JFH-1 replicon), 1 to 999 pM. Also, in test [7] (genotype 1a replicon), the EC50 lay within 1 to 999 pM.

With `COC(=O)N[C@H](C(=O)N1CC2(C[C@H]1c1nc3ccc4cc(-c5ccc(-c6cnc([C@@H]7CCCN7C(=O)[C@H](NC(=O)OC)c7ccccc7)[nH]6)cc5)ccc4c3[nH]1)OCCO2)C(C)C` [Example 411], the EC50 in test [1] was 1000 to 44000 pM; in test [2], 1000 to 44000 pM; in test [3] it was 1 to 990 pM; in test [4] (setting [8]), 1 to 990 pM; in test [5], 0.034 nM; in test [6] (genotype 2a JFH-1 replicon), 1 to 999 pM. Further, the EC50 in test [7] (genotype 1a replicon) was in the range of 1 to 999 pM.

In the case of `COC[C@H]1CC[C@@H](c2ncc(-c3cc4c5c(c3)OCc3cc(-c6cnc([C@@H]7CC[C@H](COC)N7C(=O)[C@@H](NC(=O)OC)C(C)C)[nH]6)cc(c3-5)OC4)[nH]2)N1C(=O)[C@@H](NC(=O)OC)C(C)C` [Example 578], the EC50 in test [1] was above 44000 pM; in test [2], above 44000 pM; in test [3] it was 1 to 990 pM; in test [4] (setting [9]), 1 to 990 pM; in test [5], 0.022 nM; in test [6] (setting [10]), 1 to 999 pM. Moreover, the EC50 in test [7] (genotype 1a H77 RLuc replicon) lay in the range of 1 to 999 pM.

As for `CN(C)CC(=O)N[C@@H](C(=O)N1CCC[C@H]1c1ncc(-c2cc3c4c(c2)OCc2cc(-c5cnc([C@@H]6CCCN6C(=O)[C@H](NC(=O)CN(C)C)c6ccccc6)[nH]5)cc(c2-4)OC3)[nH]1)c1ccccc1` [Example 462], the EC50 in test [1] is 1000 to 44000 pM; in test [2] it was 1000 to 44000 pM; in test [3], 1000 to 4990 pM; in test [4] (setting [8]), 1 to 990 pM; in test [5] it was 8.76 nM; in test [6] (genotype 2a JFH-1 replicon), 1 to 999 pM. Besides, the EC50 in test [7] (genotype 1a replicon) fell in the range of 1000 to 44000 pM.

Consider `COC(=O)N[C@H](C(=O)N1CCC[C@H]1c1ncc(-c2cc3c4c(c2)OCc2cc(-c5cnc([C@@H]6CCCN6C(=O)[C@@H](NC(=O)OC)C(C)C)[nH]5)cc(c2-4)OC3)[nH]1)C(C)C` [Example 9], for which the EC50 is above 44000 pM in test [1]; 1000 to 44000 pM in test [2]; 1 to 990 pM in test [3]; 1 to 990 pM in test [4] (setting [11]); 0.022 nM in test [5] (72 h); 1 to 999 pM in test [6] (setting [12]). The EC50 in test [7] (setting [13]) was 1 to 999 pM.

`COC(=O)N[C@H](C(=O)N1CCC[C@H]1c1ncc(-c2ccc3c4ccc(-c5cnc([C@@H]6CCCN6C(=O)[C@@H](NC(=O)OC)C(C)C)[nH]5)cc4c4ccccc4c3c2)[nH]1)C(C)C` [Example 22]: the EC50 was above 44000 pM in test [1]; above 44000 pM in test [2]; 1 to 990 pM in test [3]; 1 to 990 pM in test [4] (setting [11]); 0.005 nM in test [5] (72 h); 1 to 999 pM in test [6] (setting [12]). The EC50 in test [7] (setting [13]) lay in the range of 1 to 999 pM.

As to `COC(=O)N[C@H](C(=O)N1[C@@H]2CC[C@@H](C2)[C@H]1c1nc2ccc3cc(-c4ccc5c(ccc6nc([C@@H]7CCCN7C(=O)[C@@H](NC(=O)OC)C7CCOCC7)[nH]c65)c4)ccc3c2[nH]1)C(C)C` [Example 298], the EC50 in test [1] was 1 to 999 pM; in test [2] it was 1000 to 44000 pM; in test [3] it was 1 to 990 pM; in test [4] (setting [8]), 1 to 990 pM; in test [5] it was 0.077 nM; in test [6] (genotype 2a JFH-1 replicon), 1 to 999 pM. The EC50 in test [7] (genotype 1a replicon) is 1 to 999 pM.

For `COC(=O)N[C@H](C(=O)N1[C@@H]2C[C@@H]2C[C@H]1c1ncc(-c2cc3c4c(c2)OCc2cc(-c5cnc([C@@H]6C[C@H]7C[C@H]7N6C(=O)[C@H](NC(=O)OC)c6ccccc6)[nH]5)cc(c2-4)OC3)[nH]1)C(C)C` [Example 501], the EC50 in test [1] was above 44000 pM; in test [2], 1000 to 44000 pM; in test [3], 1 to 990 pM; in test [4] (setting [9]), 1 to 990 pM; in test [5], 0.021 nM; in test [6] (setting [10]), 1 to 999 pM. The EC50 in test [7] (genotype 1a H77 RLuc replicon) lay in the range of 1 to 999 pM.

Take `COC(=O)N[C@H](C(=O)N1CCC[C@H]1c1ncc(-c2ccc3c(c2)COc2c-3ccc3cc(-c4cnc([C@@H]5CCCN5C(=O)[C@H](NC(=O)OC)c5ccccc5)[nH]4)ccc23)[nH]1)C(C)C` [Example 2]: the EC50 is above 44000 pM in test [1]; above 44000 pM in test [2]; 1 to 990 pM in test [3]; 1 to 990 pM in test [4] (setting [11]); 0.005 nM in test [5] (72 h); 1 to 999 pM in test [6] (setting [12]). Moreover, in test [7] (setting [13]), the EC50 was in the range of 1 to 999 pM.

For `COC(=O)N[C@H](C(=O)N1CCC[C@H]1c1nc2ccc3cc(-c4ccc5c(ccc6nc([C@@H]7C[C@@H]8CCC[C@@H]8N7C(=O)[C@@H](NC(=O)OC)C(C)C)[nH]c65)c4)ccc3c2[nH]1)C(C)C` [Example 428], the EC50 was 1 to 999 pM in test [1]; 1000 to 44000 pM in test [2]; 1 to 990 pM in test [3]; 1 to 990 pM in test [4] (setting [8]); 0.011 nM in test [5]; 1 to 999 pM in test [6] (genotype 2a JFH-1 replicon). Also, the EC50 in test [7] (genotype 1a replicon) is 1 to 999 pM.

`COC(=O)N[C@H](C(=O)N1CCC[C@H]1c1nc2ccc3cc(-c4ccc5c(ccc6nc([C@@H]7CC8(CN7C(=O)[C@@H](NC(=O)OC)C(C)C)OCCO8)[nH]c65)c4)ccc3c2[nH]1)C(C)C` [Example 363]: the EC50 in test [1] was 1000 to 44000 pM; in test [2] it was above 44000 pM; in test [3], 1 to 990 pM; in test [4] (setting [8]) it was 1000 to 4990 pM; in test [5], 0.025 nM; in test [6] (genotype 2a JFH-1 replicon) it was 1 to 999 pM. Moreover, the EC50 in test [7] (genotype 1a replicon) was 1 to 999 pM.

`COC[C@H]1C[C@@H](c2ncc(-c3cc4c5c(c3)OCc3cc(-c6cnc([C@@H]7CC[C@H](C)N7C(=O)[C@@H](NC(=O)OC)C(C)C)[nH]6)cc(c3-5)OC4)[nH]2)N(C(=O)[C@@H](NC(=O)OC)C(C)C)C1` [Example 595]: the EC50 in test [1] is above 44000 pM; in test [2] it was 1000 to 44000 pM; in test [3], 1 to 990 pM; in test [4] (setting [9]) it was 1 to 990 pM; in test [5] it was 0.02 nM; in test [6] (setting [10]) it was 1 to 999 pM. For the same compound, the EC50 in test [7] (genotype 1a H77 RLuc replicon) was in the range of 1 to 999 pM.
